One compound from US9393190B2, “Methods for enhancing skin tan and reducing risks of UV skin damage” (DSM IP ASSETS B.V., priority 2009, dated 2016) can be followed below.

The test system of the experiment is Normal human melanocytes NHM (HEMn-MP, Clonetics). The experiment can be described thus: Quantification of melanin synthesis in cell culture (total melanin, absorbance at 405 nm). The experiment is classed as cell-based. On the procedure:
Quantification of Melanin Synthesis in Cell Culture:
Normal human melanocytes NHM (HEMn-MP, Clonetics) were seeded in 96 well cell culture plates and grown to sub-confluence for two days in a mixture of M2-Medium (Clonetics) and Medium (Promocell). Culture medium was exchanged with Culture Medium containing Steviol (96%) and melanogenesis progressed for another three days at 37° C. with another medium exchange on day two. Including cell layer and culture supernatant the total melanin was extracted using 1.7M KOH with vigorous shaking at RT. The total melanin content was determined at 405 nm in an absorbance plate reader versus a control (100%)

Regarding `C=C1C[C@@]23CC[C@H]4[C@@](C)(CCC[C@@]4(C)C(=O)O)[C@@H]2CC[C@]1(O)C3` [Steviol], the “effect on the production of melanin in human melanocytes” value (0.25 to 1 micro M) is “clear dose dependent positive effect”. Moreover, for the setting “melanin production in human melanocytes”, the “potency relative to positive control Glycyrrhizin” value is “about 1000 times”.
